# Laboratory results as given in ChEMBL document CHEMBL1201862, “PubChem BioAssay data set” (2004).
# Activity calls are given as the source filed them. *1 amine or outer side, *2 acyl side, *3 side chain or, on linkers, in order; H or OH if unused. Where a SMILES comes first, the peptide text is derived from it. Bridges are numbered along the chain shown (N, C = ends). [ ]: non-standard residue; d: D form. The star is where a group is joined. X56 = CC(C)C(C)C(C(=O)[*:2])N(C)[*:1]; Picolinoyl(3-OH) = O=C(c1ncccc1O)*; NMePhg = CN[CH](C(=O)O)c1ccccc1; Hyp = O=C(O)[CH]1C[CH](O)CN1; Sar = CNCC(=O)O
# Experiments:
# [1] = NIH-3T3 fibroblast cytotoxicity, dose response, cytotoxicity control, cell-based, fluorescence, Alamar Blue, secondary assay (AID 2327); assay type: functional;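 also: NIH-3T3 mouse fibroblasts cultured with fluconazole at 8 µg/mL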
# [2] = fluconazole-exposed Candida albicans growth modulators – fluorescence, retest, confirmation (AID 2467); assay type: functional, cell-based
# [3] = biological target: Nonstructural protein 1 (Influenza A virus, UniProt Q194T2); assay type: functional, Influenza A virus (A/California/07/2009(H1N1))
# Nonstructural protein 1, sequence (Q194T2 whole entry): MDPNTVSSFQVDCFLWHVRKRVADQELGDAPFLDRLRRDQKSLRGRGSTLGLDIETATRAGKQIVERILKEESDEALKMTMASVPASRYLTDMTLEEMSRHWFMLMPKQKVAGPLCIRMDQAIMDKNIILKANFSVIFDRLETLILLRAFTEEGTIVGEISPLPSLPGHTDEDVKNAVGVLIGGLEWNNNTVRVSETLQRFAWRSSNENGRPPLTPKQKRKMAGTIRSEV
# [4] = biological target: T1, Ubiquitin-conjugating enzyme E2 N (Homo sapiens, UniProt P61088); assay type: functional;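 also: Dose-response confirmation in a TR-FRET assay detecting UBC13-driven polyubiquitin chain formation, inhibition measured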
# T1 sequence (P61088 whole entry): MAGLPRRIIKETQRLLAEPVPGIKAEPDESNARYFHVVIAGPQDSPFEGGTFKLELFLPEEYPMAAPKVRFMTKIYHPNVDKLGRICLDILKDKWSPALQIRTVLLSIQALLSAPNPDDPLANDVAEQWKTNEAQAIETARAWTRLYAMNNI
# [5] = viability of uninfected HEp-2 cells – cell-based, HTS, cytotoxicity control for RSV inhibitor project, dose response (AID 2410); assay type: functional; settings: human respiratory syncytial virus
# [6] = biological target: T2, Polyadenylate-binding protein 1 (Homo sapiens, UniProt P11940); test: MLLE domain peptide-binding blockers, IC50 – biochemical, fluorescence polarization, FITC-PAM2 peptide, dose response (AID 602259); assay type: functional; settings: read-out: IC50_Mean
# T2 sequence (P11940 whole entry, the tested form may be a part): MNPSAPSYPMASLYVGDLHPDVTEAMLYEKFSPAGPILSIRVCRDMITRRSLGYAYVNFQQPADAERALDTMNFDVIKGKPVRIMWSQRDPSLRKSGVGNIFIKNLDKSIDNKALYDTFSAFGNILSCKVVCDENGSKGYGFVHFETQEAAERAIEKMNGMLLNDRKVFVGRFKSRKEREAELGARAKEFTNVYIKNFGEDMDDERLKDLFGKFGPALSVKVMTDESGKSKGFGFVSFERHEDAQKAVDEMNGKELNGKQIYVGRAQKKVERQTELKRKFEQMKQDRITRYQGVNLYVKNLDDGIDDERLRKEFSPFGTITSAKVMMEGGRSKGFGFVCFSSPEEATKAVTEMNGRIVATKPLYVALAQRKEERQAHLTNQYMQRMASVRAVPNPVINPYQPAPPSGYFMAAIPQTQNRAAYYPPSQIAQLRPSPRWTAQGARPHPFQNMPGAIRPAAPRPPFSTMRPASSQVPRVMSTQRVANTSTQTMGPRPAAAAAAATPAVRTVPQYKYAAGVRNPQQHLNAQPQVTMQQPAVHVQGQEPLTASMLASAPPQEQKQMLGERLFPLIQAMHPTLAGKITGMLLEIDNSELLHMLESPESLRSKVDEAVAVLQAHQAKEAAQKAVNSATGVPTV
# [7] = DRD fibroblast viability loss – cell-based, non-viral oncogenic, luminescence, dose response (AID 1934); assay type: functional; settings: Homo sapiens
# [8] = biological target: T2, Polyadenylate-binding protein 1; test: MLLE binding blockers, Cy5 peptide tracer – biochemical, fluorescence polarization, Cy5-PAM2 peptide, secondary, miRNA deadenylation inhibitor project, dose response (AID 602260); assay type: functional; settings: read-out: IC50_Mean
# [9] = test system: BJ; test: cells; assay type: functional, cell-based; settings: Homo sapiens
# [10] = test system: BJ; test: BJ-TERT-LT-ST fibroblast viability loss – cell-based, RAS-independent, luminescence, dose response (AID 1935); assay type: functional; settings: Homo sapiens;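 also: BJ fibroblasts immortalized with TERT plus LT and ST oncogenes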
# [11] = test system: BJ; test: BJ-TERT fibroblast viability loss – cell-based, RAS-independent, luminescence, dose response (AID 1933); assay type: functional; settings: Homo sapiens
# [12] = test system: H9c2; test: cells; assay type: functional, cell-based; settings: Rattus norvegicus, H9c2, Myocardium;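 also: confirmatory concentration-response retest of ultra-high-throughput screening hits for modulation of myocardial damage; cell death induced by hydrogen peroxide oxidative stress; compound pretreatment for 60 min then peroxide exposure for 2 h; potency is for protecting the cells against peroxide damage rather than for killing them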
# [13] = biological target: Cytochrome P450 2D6 (Homo sapiens, UniProt P10635);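 also: CYP2D6 member of a cytochrome P450 panel assay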
# Cytochrome P450 2D6, sequence (P10635 whole entry): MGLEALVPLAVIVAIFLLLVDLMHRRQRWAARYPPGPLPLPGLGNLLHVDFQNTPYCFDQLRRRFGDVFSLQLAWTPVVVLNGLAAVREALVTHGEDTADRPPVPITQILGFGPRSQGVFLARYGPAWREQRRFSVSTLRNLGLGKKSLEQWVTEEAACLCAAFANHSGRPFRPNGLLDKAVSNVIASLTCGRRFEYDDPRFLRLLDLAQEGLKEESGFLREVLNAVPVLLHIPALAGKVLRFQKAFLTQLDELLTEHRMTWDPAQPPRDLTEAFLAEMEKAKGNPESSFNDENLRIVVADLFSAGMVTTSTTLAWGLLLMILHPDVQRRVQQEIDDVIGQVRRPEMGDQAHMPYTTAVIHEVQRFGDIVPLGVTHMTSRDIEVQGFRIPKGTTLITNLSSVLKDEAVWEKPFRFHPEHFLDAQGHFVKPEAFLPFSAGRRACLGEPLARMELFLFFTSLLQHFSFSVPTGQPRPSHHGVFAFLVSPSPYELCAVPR
# [14] = biological target: FAD-linked sulfhydryl oxidase ALR (Homo sapiens, UniProt P55789); test: ALR-catalysed DTT oxidation blockers – biochemical, H2O2 detection, luminescence, cherry-pick, dose response (AID 493248)
# FAD-linked sulfhydryl oxidase ALR, sequence (P55789 whole entry): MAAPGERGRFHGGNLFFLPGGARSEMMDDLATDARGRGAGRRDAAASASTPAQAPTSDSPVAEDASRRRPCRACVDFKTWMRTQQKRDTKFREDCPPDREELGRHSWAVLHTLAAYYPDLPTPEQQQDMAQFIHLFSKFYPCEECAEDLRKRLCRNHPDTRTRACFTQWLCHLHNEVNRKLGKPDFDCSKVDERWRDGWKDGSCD
# [15] = biological target: Luciferin 4-monooxygenase (Photinus pyralis, UniProt P08659); test: inhibition of purified Photinus pyralis luciferase – biochemical, luminescence, dose response (AID 1891)
# Luciferin 4-monooxygenase, sequence (P08659 whole entry): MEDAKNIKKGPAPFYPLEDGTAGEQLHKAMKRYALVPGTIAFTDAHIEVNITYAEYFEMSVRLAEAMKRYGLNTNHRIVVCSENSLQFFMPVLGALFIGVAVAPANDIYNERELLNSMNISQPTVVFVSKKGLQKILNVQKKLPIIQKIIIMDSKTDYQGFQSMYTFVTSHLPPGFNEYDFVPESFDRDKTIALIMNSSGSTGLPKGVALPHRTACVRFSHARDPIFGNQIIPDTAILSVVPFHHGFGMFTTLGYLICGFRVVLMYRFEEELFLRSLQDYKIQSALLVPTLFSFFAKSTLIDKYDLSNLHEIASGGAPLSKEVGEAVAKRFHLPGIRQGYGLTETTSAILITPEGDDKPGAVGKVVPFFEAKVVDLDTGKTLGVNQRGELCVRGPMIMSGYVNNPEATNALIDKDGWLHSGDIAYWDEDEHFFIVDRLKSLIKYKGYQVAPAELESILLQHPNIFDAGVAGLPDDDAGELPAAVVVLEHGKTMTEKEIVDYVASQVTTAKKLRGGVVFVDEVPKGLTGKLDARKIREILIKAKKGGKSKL
# [16] = Luminescence Cell-Based Dose Confirmation HTS to Identify Inhibitors of Platelet Dense Granule Release. [Related pubchem assays: 1663 (Primary HTS), 1678 (Summary of Project)]; assay type: functional
# [17] = test system: SN12K1; test: cells; assay type: functional; settings: Homo sapiens
# [18] = test system: P388/ADR; test: cells; assay type: functional; settings: Mus musculus
# [19] = test system: P388; test: cells; assay type: functional; settings: Mus musculus
# [20] = biological target: T3, Corticotropin-releasing factor receptor 2/Corticotropin-releasing factor-binding protein (Homo sapiens, UniProt P24387+Q13324); test: activators of CRF receptor 2 with binding protein – uHTS hits, confirmation (AID 602473); assay type: functional; settings: read-out: EC50_Mean
# T3 sequence (Q13324 whole entry): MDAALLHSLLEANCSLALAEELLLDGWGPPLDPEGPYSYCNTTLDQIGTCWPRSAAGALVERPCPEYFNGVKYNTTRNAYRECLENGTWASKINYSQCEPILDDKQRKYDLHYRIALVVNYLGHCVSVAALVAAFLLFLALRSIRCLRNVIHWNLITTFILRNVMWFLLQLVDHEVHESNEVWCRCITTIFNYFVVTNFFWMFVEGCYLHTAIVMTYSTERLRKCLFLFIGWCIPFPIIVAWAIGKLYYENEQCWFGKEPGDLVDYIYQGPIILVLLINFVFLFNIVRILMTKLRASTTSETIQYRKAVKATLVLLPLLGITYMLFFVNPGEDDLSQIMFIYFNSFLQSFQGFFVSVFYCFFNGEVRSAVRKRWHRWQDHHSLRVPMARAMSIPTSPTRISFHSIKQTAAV
# T3 sequence (P24387 whole entry): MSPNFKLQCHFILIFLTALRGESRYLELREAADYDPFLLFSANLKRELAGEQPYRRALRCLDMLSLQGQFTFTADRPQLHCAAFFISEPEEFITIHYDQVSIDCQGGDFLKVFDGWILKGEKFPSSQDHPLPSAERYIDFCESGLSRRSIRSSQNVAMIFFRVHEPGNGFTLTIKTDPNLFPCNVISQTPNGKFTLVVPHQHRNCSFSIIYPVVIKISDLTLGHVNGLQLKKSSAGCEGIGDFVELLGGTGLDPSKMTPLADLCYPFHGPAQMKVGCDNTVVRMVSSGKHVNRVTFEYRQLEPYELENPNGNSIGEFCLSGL
# [21] = Luminescence Cell-Based Dose Retest to Confirm Inhibitors of Cancer Stem Cells. [Related pubchem assays (depositor defined):AID2717, AID2721]; assay type: functional; settings: Homo sapiens
# [22] = biological target: Large T antigen (Simian virus 40, UniProt P03070); assay type: functional, Betapolyomavirus macacae;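 also: Confirmatory-stage PubChem screen for compounds that inhibit SV40 T antigen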
# Large T antigen, sequence (P03070 whole entry): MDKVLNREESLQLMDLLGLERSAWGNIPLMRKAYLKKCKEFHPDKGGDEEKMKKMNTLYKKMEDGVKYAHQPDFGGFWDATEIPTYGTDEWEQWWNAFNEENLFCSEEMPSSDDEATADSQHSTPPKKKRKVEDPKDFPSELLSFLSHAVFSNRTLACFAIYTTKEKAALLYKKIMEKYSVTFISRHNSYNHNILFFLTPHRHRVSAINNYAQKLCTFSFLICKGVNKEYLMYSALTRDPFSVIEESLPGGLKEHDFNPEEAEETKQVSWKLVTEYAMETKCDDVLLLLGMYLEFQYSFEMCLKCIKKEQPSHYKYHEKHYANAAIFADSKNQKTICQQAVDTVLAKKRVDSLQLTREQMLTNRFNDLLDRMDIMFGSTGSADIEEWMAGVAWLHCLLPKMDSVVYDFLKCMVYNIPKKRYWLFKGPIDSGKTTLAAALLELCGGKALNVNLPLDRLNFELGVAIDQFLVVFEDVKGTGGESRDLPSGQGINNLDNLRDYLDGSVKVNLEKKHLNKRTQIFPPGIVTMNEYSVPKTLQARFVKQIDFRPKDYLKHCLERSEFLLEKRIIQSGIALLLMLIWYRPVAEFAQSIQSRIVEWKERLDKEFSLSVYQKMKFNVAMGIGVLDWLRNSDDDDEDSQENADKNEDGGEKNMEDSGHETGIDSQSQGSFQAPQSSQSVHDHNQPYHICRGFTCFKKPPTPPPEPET
smiles,measurement,setting,value
Cc1ccc(NC(=O)NNC(=O)c2cc3ccccc3cc2O)cc1C,EC50,[1],> 160 µM (inactive)
same,EC50,[2],> 38 µM (not active)
Cc1ccc(S(=O)(=O)CCc2nnc(NC(=O)c3ccccn3)s2)cc1,IC50,[3],10.2 µM (active)
O=C(NCCCN1CCOCC1)c1ccc2c(=O)n(Cc3cccc(Br)c3)c(=S)[nH]c2c1,IC50,[4],> 20 µM (inactive)
O=C(C1CCCN(S(=O)(=O)c2cccc3nonc23)C1)N1CCN(c2ccccc2Cl)CC1 (configuration not stated),IC50,[3],> 100 µM (active)
Cc1cc(Cl)n2nc(C)c(-c3ccc(Cl)cc3)c2n1,CC50,[5],27.6 µM (active)
same,EC50,[1],> 150 µM (inactive)
same,EC50,[2],> 38 µM (not active)
CCOc1ccccc1-c1nc(C(N)=O)c2nc(O)n(-c3ccc(F)cc3)c2n1,IC50,[4],> 20 µM (inactive)
O=C(NNC(=O)C1CCN(S(=O)(=O)c2ccc(Cl)cc2)CC1)c1ccc(S(=O)(=O)N2CCCCC2)cc1,IC50,[4],> 20 µM (inactive)
CCOC(=O)c1cccc(NS(=O)(=O)c2c(C(=O)N3CCCCCC3)c(C)n(C)c2C)c1,IC50,[4],> 20 µM (inactive)
NC(=O)c1cc2c3ccccc3ccn2c1-c1ccccc1,IC50,[6],32.2 µM (inactive)
same,EC50,[7],0.244 µM (active)
same,IC50,[8],> 66 µM (inactive)
same,EC50,[9],27.4 µM (inconclusive)
same,EC50,[10],5.08 µM (inconclusive)
same,EC50,[11],0.305 µM (active)
COc1nnc(-c2ccccc2)s1,IC50,[6],> 66 µM (inactive)
same,IC50,[8],> 66 µM (inactive)
COc1ccc(C(C(=O)NCc2ccccc2)N(Cc2cccs2)C(=O)c2cnccn2)cc1 (configuration not stated),IC50,[12],> 79 µM (inactive)
same,AC50,[13],31.6 µM (inconclusive)
COc1cc(OC)c2c(-c3ccccc3)cc(=O)oc2c1C(CCN1CCCC(C)C1)c1ccc(N(C)C)cc1 (configuration not stated),IC50,[3],11.4 µM (active)
O=C1/C(=C\c2cccnc2)SC(=S)N1C1CCS(=O)(=O)C1 (configuration not stated),EC50,[7],20.4 µM (active)
same,EC50,[9],> 150 µM (inconclusive)
same,EC50,[10],> 150 µM (not active)
same,EC50,[2],0.479 µM (active)
same,EC50,[11],22.5 µM (active)
Cc1ccc(OC(=O)COc2ccccc2C)c(-n2nc3ccccc3n2)c1,IC50,[6],> 66 µM (inactive)
same,IC50,[8],> 66 µM (inactive)
CC1CCc2sc(-c3nnc(S)o3)cc2C1 (configuration not stated),AC50,[14],1.2 µM (active)
CC(=O)Nc1cccc(NC(=O)CSc2nn3c(=O)c(C)nnc3s2)c1,IC50,[3],9.96 µM (active)
Cn1c(N)c(N2CCN(c3ccccc3)CC2)c(=O)[nH]c1=O,AC50,[14],3.9 µM (active)
OC(CNCc1cccc(Br)c1)c1ccccc1 (configuration not stated),EC50,[15],> 112 µM (not active)
same,EC50,[16],20.7 µM (active)
O=C(CSc1nc(-c2ccccc2)cs1)NCc1ccco1,EC50,[15],> 112 µM (not active)
same,EC50,[16],> 112 µM (not active)
COc1ccc(NC(=O)CCS(=O)(=O)c2ccc3nc(C)sc3c2)cc1OC,EC50,[15],> 112 µM (not active)
same,EC50,[16],> 112 µM (not active)
CCC(C)N(C(=O)CSc1ccc(NC(C)=O)cc1)C1CCS(=O)(=O)C1 (configuration not stated),IC50,[6],> 66 µM (inactive)
same,IC50,[8],> 66 µM (inactive)
COC(=O)c1sccc1NC(=O)Nc1ccc(F)cc1,EC50,[15],0.535 µM (active)
same,EC50,[16],1.67 µM (active)
COc1cc(C(=O)Nc2nc3ccc(S(C)(=O)=O)cc3s2)cc(OC)c1C,IC50,[4],> 20 µM (inactive)
Cc1cc(OC(=O)c2ccco2)c2c3c(c(=O)oc2c1)CCCC3,CC50,[5],33.1 µM (active)
same,EC50,[1],> 160 µM (inactive)
same,EC50,[2],5.16 µM (active)
CCc1ccc(C(=O)Nn2c(C)nc3ccccc3c2=O)cc1,IC50,[4],> 20 µM (inactive)
COc1ccc2[nH]cc(/C=C(/C)c3ccncc3)c2c1,GI50,[17],16 µM (inactive)
same,GI50,[18],2.99 µM (inactive)
same,GI50,[19],3.07 µM (inactive)
COC1/C=C\C=C(/C)C(=O)NC2=CC(=O)C=C(C2=O)C(OC)C(C)CC(OC)C(OC)C(C)/C=C(/C)C1OC(N)=O (configuration not stated),GI50,[17],1.69 µM (inactive)
same,GI50,[18],1.29 µM (inactive)
same,GI50,[19],0.0166 µM (active)
COc1ccc(C2C3CCCC(C3=O)C(c3ccc(OC)cc3)N2N=O)cc1 (configuration not stated),GI50,[17],30.5 µM (inactive)
same,GI50,[18],17.9 µM (inactive)
same,GI50,[19],19.9 µM (inactive)
CSCC[C@@H]1C(=O)N(C)[C@H](C(C)(C)C)N1C(=O)c1ccccc1,GI50,[17],> 100 µM (inactive)
same,GI50,[19],> 100 µM (inactive)
CCCSCC(P(=O)(O)O)P(=O)(O)O.NC1CCCCC1,GI50,[17],> 100 µM (inactive)
same,GI50,[18],> 100 µM (inactive)
same,GI50,[19],> 100 µM (inactive)
COC(=O)c1c(C)[nH]c(O)c1/C=N/c1ccc(Oc2ccccc2)cc1,IC50,[12],> 79 µM (inactive)
same,EC50,[20],> 53 µM (inactive)
CCOC(=O)C(CC(C)C)NC(=O)C(Cc1ccc(N(CCCl)CCCl)cc1)NC(C)=O (configuration not stated),GI50,[17],2.2 µM (inactive)
same,GI50,[18],1.91 µM (inactive)
same,GI50,[19],1.93 µM (inactive)
CCCCC#CS(=O)(=O)C(F)(F)F,GI50,[17],51.9 µM (inactive)
same,GI50,[18],27.7 µM (inactive)
same,GI50,[19],19.7 µM (inactive)
N#C/C(=C\c1ccc(O)cc1)C(N)=O,GI50,[17],> 100 µM (inactive)
same,GI50,[18],> 100 µM (inactive)
same,GI50,[19],> 100 µM (inactive)
CN(C)c1ccc(/C=N/NC(=O)c2ccn(C)n2)cc1,AC50,[14],25.6 µM (active)
COc1ccc(Cc2nnc(N/N=C/c3ccc(O)cc3O)nc2O)cc1OC,IC50,[3],1.78 µM (active)
same,AC50,[21],8.28 µM (active)
O=C(N/N=C/c1ccc(O)c(O)c1)C1CC1,IC50,[22],5.55 µM (active)
same,AC50,[14],0.127 µM (active)
Cc1nc(C#N)c(N/N=C/c2c(F)cccc2Cl)o1,AC50,[14],2.54 µM (active)
Cc1cc(C)cc(NC2=C(N)C(=O)c3ccccc3C2=O)c1,IC50,[3],37.3 µM (active)
CC(C)CC1NC(=O)C(NC(=O)c2ncccc2O)C(C)OC(=O)C(c2ccccc2)N(C)C(=O)C(C)NC(=O)C(C(C)C(C)C)N(C)C(=O)CN(C)C(=O)C2CC(O)CN2C1=O (configuration not stated) ({Picolinoyl(3-OH)}-TL[Hyp][Sar][X56]A[NMePhg]; ester 1-C; configuration not given here),GI50,[17],51.3 µM (inactive)
same,GI50,[18],> 109 µM (inactive)
same,GI50,[19],6.21 µM (inactive)
